{
  "source": "patent US11278529B2",
  "about": "“Methods for treating aggression associated with Alzheimer's disease” (Ovid Therapeutics Inc., priority 2014, dated 2022)",
  "key": {"APP/PS1 HET mice": {"system": "APP/PS1 HET mice", "test": "Resident-Intruder (RI) test of aggression", "type": "in vivo", "description": "Behavioral aggression is a common symptom associated with Alzheimer's disease. The Resident-Intruder (RI) test is a behavioral test that can assess aggression in male mice. The two output measures are latency to attack and total number of attacks during the test. 40 Male APP/PS1 HET and 10 Male APP/PS1 WT were used as “residents”. Male C57BL/6J mice were used as intruders.\n• animal age (>2 vs. >6 months for Fmr1 and APP/PS1) • housing conditions (APP/PS1 were single housed for 3 weeks ahead of testing) • lab, diet, and potentially lighting Many Other Key Variables were the Same: • route and timing of drug admin (i.p injection 30 min ahead of testing) • gender (male only) • genetic background (C57BL/6J) • 10 animals/group\nMice were screened for baseline aggression in the Resident Intruder test. Mice with attack latencies exceeding 150 seconds were excluded from the study. Mice were then balanced by latency to first attack, attack frequency, and body weight.\nGaboxadol (referred to as Test compound A) was tested at 0.5, 1, and 2 mg/kg following IP injection, 30 min pre-treat time. Mice were tested in Resident-Intruder paradigm for 5 minutes test duration."}, "male C57 mice": {"system": "male C57 mice", "test": "Locomotor activity, male C57 mice", "type": "in vivo", "details": "male C57 mice, 1.25, 2.5 and 5 mg/Kg i.p. 30 min ahead of testing", "experimental": "10 male C57 mice were administered 0.9% NaCl, and gaboxadol: 1.25 mg/Kg, 2.5 mg/Kg and 5 mg/Kg by i.p injection 30 min ahead of testing."}, "male Balb/Cbyj mice": {"system": "male Balb/Cbyj mice", "test": "Locomotor activity, male Balb/Cbyj mice", "type": "in vivo", "details": "male Balb/Cbyj mice, 1.25, 2.5 and 5 mg/Kg i.p. 30 min ahead of testing", "experimental": "10 male Balb/Cbyj mice were administered 0.9% NaCl, and gaboxadol: 1.25 mg/Kg, 2.5 mg/Kg and 5 mg/Kg by i.p injection 30 min ahead of testing."}, "[1]": {"system": "subjects under sleep-restriction", "details": "15 mg, cited from earlier work"}, "healthy subjects": {"system": "healthy subjects", "details": "cited from earlier work"}, "[2]": {"system": "primary insomnia subjects", "details": "cited from earlier work"}, "[3]": {"system": "patients with primary insomnia", "details": "cited from earlier work"}, "[4]": {"system": "healthy young and elderly individuals", "details": "in vivo; cited from earlier work"}, "cerebellar granule cells": {"system": "cerebellar granule cells", "details": "500 nM; cited from earlier work"}, "Fmr1 knockout mice": {"system": "Fmr1 knockout mice", "details": "in vivo; cited from earlier work"}, "GABA": {"system": "GABA", "details": "cited from earlier work"}, "GABA-uptake": {"system": "GABA-uptake", "details": "cited from earlier work"}, "[5]": {"details": "cited from earlier work"}, "[6]": {"system": "mouse model of Angelman syndrome", "details": "cited from earlier work"}, "predisposed individuals": {"system": "predisposed individuals", "details": "high peak concentrations; cited from earlier work"}},
  "data": [
    {"smiles": "Oc1noc2c1CCNC2", "note": "[gaboxadol, 4,5,6,7-tetrahydroisoxazolo(5,4-c)pyridin-3-ol]", "values": [
      {"measurement": "heightened aggression", "setting": "APP/PS1 HET mice; Alzheimer disease model", "value": "normalizes heightened aggression"},
      {"measurement": "attack frequency", "setting": "APP/PS1 HET mice; HET mice, 0.5, 1, and 2 mg/kg IP, 30 min pre-treat", "value": "significantly attenuated"},
      {"measurement": "latency to first attack", "setting": "APP/PS1 HET mice; HET mice, 0.5, 1, and 2 mg/kg IP, 30 min pre-treat, compared to vehicle", "value": "significantly increased"},
      {"measurement": "sedation (locomotor activity, total distance traveled)", "setting": "male C57 mice", "value": "not sedating"},
      {"measurement": "sedation (locomotor activity, total distance traveled)", "setting": "male Balb/Cbyj mice", "value": "not sedating"},
      {"measurement": "mean more SWS compared to placebo", "setting": "[1]; over four sleep-restriction nights", "value": 21.8, "unit": "min"},
      {"measurement": "stage 4 sleep and SWS compared with the placebo group", "setting": "[1]; p<0.001", "value": "significantly more"},
      {"measurement": "stage 1 sleep, REM sleep, and shifts to wake or stage 1 sleep relative to placebo", "setting": "[1]", "value": "small but significant reductions"},
      {"measurement": "TST increase compared to placebo", "setting": "healthy subjects; all dosages (5, 10, 15 mg), p<0.001", "value": "approximately 30 minutes"},
      {"measurement": "WASO reduction compared to placebo", "setting": "healthy subjects; all dosages (5, 10, 15 mg), p<0.05", "value": "17 to 20", "unit": "min"},
      {"measurement": "subjective measures of sleep quality relative to placebo", "setting": "healthy subjects; in vivo", "value": "improved"},
      {"measurement": "SWS compared with placebo", "setting": "[2]; 10 mg (p<0.01) and 20 mg (p<0.001)", "value": "increase"},
      {"measurement": "WASO", "setting": "[2]; 20 mg, p<0.01", "value": "significantly reduced"},
      {"measurement": "TST", "setting": "[2]; 20 mg, p<0.05", "value": "significantly increased"},
      {"measurement": "NASO", "setting": "[2]; both doses (10 and 20 mg), p<0.001", "value": "significantly reduced"},
      {"measurement": "TST", "setting": "[3]; 5 mg and 15 mg, p<0.05", "value": "significantly improved"},
      {"measurement": "latency to persistent sleep", "setting": "[3]; 15 mg, p<0.05", "value": "significantly reduced"},
      {"measurement": "SWS", "setting": "[3]; 15 mg", "value": "enhance"},
      {"measurement": "stage 1, stage 2, or REM sleep", "setting": "[3]; 15 mg", "value": "without significantly affecting"},
      {"measurement": "WASO", "setting": "[3]; statistical significance only with the 5 mg dose", "value": "improved"},
      {"measurement": "NREM sleep, sleep continuity, delta activity within NREM sleep, SWS/SWA", "setting": "[4]", "value": "increase"},
      {"measurement": "REM sleep", "setting": "[4]", "value": "without suppressing"},
      {"measurement": "excitability of cerebellar granule cells", "setting": "cerebellar granule cells", "value": "reduced"},
      {"measurement": "tonic holding currents", "setting": "cerebellar granule cells", "value": "increased"},
      {"measurement": "hyperactivity (travel and velocity)", "setting": "Fmr1 knockout mice", "value": "reduction or dampening"},
      {"measurement": "hypersensitivity to auditory stimuli", "setting": "Fmr1 knockout mice", "value": "reduction"},
      {"measurement": "GABA agonist activity", "setting": "GABA", "value": "very potent"},
      {"measurement": "activity as a GABA-uptake inhibitor", "setting": "GABA-uptake", "value": "inactive"},
      {"measurement": "t max", "setting": "[5]; given orally, healthy subjects", "value": "30 to 60", "unit": "min"},
      {"measurement": "dose excreted in the urine", "setting": "[5]; mostly unchanged", "value": "More than 95%"},
      {"measurement": "cerebellar dysfunction in vivo (hind paw abduction)", "setting": "[6]; 1.25 mg/kg and 2.5 mg/kg", "value": "effective to rescue"},
      {"measurement": "adverse effects (reduced time on rotarod)", "setting": "[6]; 1.25 mg/kg", "value": "without adverse effects"},
      {"measurement": "adverse event", "setting": "predisposed individuals", "value": "hallucinations"}
    ]}
  ]
}
